Active and inactive are the calls of the source. The calls are words filed in the database; no cut-off is given here.
Legend:
[1] = Cytotoxicity against human HepG2 cells assessed as cell viability at 0.1 uM incubated for 24 hrs by MTT assay relative to control; format: cell-based; conditions: read-out: Activity
[2] = Cytotoxicity against human HepG2 cells assessed as cell viability at 1 uM incubated for 24 hrs by MTT assay relative to control; format: cell-based; conditions: read-out: Activity
[3] = Cytotoxicity against human HepG2 cells assessed as cell viability at 10 uM incubated for 24 hrs by MTT assay relative to control; format: cell-based; conditions: read-out: Activity
HepG2 [4] = experiment: Increase in glucose consumption in human HepG2 cells at 10 uM by glucose oxidase assay; format: functional
[5] = molecular target: T1, Retinaldehyde dehydrogenase 3 (Homo sapiens, UniProt P47895); experiment: Inhibition of human ALDH1A3 assessed as NADH formation using propionaldehyde as substrate by spectrophotometry
T1 sequence (P47895 whole entry): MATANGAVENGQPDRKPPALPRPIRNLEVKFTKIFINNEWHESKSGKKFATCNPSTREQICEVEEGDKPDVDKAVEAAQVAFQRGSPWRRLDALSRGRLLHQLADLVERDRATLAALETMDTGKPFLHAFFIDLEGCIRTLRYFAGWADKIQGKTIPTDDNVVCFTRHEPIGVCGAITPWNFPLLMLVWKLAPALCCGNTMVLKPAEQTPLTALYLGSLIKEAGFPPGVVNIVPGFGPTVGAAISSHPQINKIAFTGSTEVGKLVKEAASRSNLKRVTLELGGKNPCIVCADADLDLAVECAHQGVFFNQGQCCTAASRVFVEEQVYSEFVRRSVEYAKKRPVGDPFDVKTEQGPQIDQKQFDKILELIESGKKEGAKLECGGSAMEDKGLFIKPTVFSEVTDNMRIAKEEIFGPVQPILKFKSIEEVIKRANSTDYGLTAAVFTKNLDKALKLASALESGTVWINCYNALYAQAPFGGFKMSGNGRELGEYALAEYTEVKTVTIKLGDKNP

Retinal dehydrogenase 2 = molecular target: T2, Retinal dehydrogenase 2 (Homo sapiens, UniProt O94788); experiment: Inhibition of human ALDH1A2 assessed as NADH formation using propionaldehyde as substrate by spectrophotometry
T2 sequence (O94788 whole entry): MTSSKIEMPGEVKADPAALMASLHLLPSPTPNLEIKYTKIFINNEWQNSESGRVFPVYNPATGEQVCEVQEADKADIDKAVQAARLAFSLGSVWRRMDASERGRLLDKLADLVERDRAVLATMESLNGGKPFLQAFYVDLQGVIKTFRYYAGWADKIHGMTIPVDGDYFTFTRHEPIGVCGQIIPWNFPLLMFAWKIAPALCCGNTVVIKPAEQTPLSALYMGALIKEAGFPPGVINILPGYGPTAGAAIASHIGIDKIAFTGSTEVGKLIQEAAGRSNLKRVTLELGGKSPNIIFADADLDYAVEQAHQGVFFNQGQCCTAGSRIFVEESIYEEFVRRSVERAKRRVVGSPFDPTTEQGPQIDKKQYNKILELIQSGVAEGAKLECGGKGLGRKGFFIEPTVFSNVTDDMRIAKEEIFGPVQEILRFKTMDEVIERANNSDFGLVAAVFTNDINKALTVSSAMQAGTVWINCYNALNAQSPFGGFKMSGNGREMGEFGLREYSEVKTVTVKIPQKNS

[6] = molecular target: T3, Aldehyde dehydrogenase, mitochondrial (Homo sapiens, UniProt P05091); experiment: Inhibition of human ALDH2 assessed as NADH formation using propionaldehyde as substrate by spectrophotometry
T3 sequence (P05091 whole entry): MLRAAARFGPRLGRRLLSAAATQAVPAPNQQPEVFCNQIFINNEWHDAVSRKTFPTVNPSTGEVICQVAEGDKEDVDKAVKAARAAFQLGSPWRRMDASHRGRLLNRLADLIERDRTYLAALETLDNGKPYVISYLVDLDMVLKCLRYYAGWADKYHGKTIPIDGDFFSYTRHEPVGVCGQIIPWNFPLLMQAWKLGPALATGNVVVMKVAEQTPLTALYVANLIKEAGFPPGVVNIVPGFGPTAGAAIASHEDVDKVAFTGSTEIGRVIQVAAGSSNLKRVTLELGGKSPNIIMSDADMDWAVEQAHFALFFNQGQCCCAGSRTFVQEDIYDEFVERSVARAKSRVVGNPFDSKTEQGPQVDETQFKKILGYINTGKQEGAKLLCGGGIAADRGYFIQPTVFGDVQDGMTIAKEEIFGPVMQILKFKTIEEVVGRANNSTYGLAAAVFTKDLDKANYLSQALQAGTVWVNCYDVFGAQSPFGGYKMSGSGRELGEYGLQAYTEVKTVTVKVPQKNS

[7] = molecular target: T4, Aldehyde dehydrogenase 1A1 (Homo sapiens, UniProt P00352); experiment: Inhibition of human ALDH1A1 assessed as NADH formation using propionaldehyde as substrate by spectrophotometry
T4 sequence (P00352 whole entry): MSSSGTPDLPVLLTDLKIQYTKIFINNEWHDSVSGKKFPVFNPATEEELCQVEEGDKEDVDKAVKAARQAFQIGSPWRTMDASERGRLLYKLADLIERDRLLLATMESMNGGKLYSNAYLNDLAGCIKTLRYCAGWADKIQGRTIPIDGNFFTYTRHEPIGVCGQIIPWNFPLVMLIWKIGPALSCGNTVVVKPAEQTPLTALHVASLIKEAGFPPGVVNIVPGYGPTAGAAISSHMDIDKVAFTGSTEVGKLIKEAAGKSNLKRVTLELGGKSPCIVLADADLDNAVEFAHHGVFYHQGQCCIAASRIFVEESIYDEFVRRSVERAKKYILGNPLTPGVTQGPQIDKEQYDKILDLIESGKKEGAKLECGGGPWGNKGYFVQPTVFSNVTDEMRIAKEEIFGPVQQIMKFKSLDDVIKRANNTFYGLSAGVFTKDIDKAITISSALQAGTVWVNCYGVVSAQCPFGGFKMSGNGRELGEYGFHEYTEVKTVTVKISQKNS

[8] = molecular target: T5, Aldehyde dehydrogenase 1A1 (Homo sapiens) (UniProt P00352); experiment: Inhibition of human ALDH1A1 assessed as NADH formation using propionaldehyde as substrate at 10 uM by spectrophotometry
T5 sequence (whole entry): T4 sequence (P00352 whole entry)

HepG2 [9] = experiment: Cytotoxicity against human HepG2 cells assessed as morphological changes at 0.1 to 10 uM incubated for 24 hrs; format: cell-based; conditions: hepg2, 24 h, dose 0.1-10 µM
[10] = molecular target: T6, Aldehyde dehydrogenase, dimeric NADP-preferring (Homo sapiens, UniProt P30838); experiment: Inhibition of human ALDH3A1 assessed as NADH formation using propionaldehyde as substrate by spectrophotometry
T6 sequence (P30838 whole entry): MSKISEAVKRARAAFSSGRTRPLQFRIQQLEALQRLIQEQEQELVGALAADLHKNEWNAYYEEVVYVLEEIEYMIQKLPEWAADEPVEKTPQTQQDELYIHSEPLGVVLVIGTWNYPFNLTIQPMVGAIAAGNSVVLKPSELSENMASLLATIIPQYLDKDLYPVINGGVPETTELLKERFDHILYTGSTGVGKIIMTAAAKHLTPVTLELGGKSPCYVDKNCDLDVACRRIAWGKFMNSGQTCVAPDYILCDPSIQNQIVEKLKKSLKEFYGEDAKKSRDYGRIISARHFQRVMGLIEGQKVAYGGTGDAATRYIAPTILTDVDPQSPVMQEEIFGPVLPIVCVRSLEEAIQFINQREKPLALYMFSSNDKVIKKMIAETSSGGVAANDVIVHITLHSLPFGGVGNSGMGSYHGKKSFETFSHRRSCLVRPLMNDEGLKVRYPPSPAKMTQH

[11] = Metabolic stability in human liver microsomes assessed as first order elimination rate constant at 2 ug/ml measured up to 45 mins by LC-MS/MS analysis; format: ADME, Microsome; conditions: dose 2 µg/ml
[12] = Metabolic stability in human liver microsomes assessed as intrinsic clearance at 2 ug/ml measured up to 45 mins by LC-MS/MS analysis; format: ADME, Microsome; conditions: dose 2 µg/ml, read-out: CLH
[13] = Metabolic stability in human liver microsomes assessed as half life at 2 ug/ml measured up to 45 mins by LC-MS/MS analysis; format: ADME, Microsome; conditions: dose 2 µg/ml

## CC(C)CCn1c(CN2CCN(C(=O)c3ccco3)CC2)nc2c1c(=O)n(C)c(=O)n2C
[1]
  viability at 24 h, 0.1 µM: 100%
[2]
  viability at 24 h, 1 µM: 100%
[3]
  viability at 24 h, 10 µM: 98.2%
HepG2 [4]
  Activity: inactive

## Cc1cccc(Cn2c(CN3CCN(C(=O)C(C)C)CC3)nc3ccccc32)c1
[1]
  viability at 24 h, 0.1 µM: 98.4%
[5]
  IC50: 2.88 µM
Retinal dehydrogenase 2
  IC50: 2.78 µM
[6]
  IC50: 2.27 µM
[7]
  IC50: 0.458 µM
[8]
  inhibition: 87.2%
[2]
  viability at 24 h, 1 µM: 93.7%
HepG2 [9]
  Activity: Non-Toxic
[3]
  viability at 24 h, 10 µM: 85.7%
HepG2 [4]
  Activity: 20%

## O=C(C1CC1)N1CCN(Cc2nc3ccccc3n2Cc2cccc(Cl)c2)CC1
[5]
  IC50: 1.01 µM
Retinal dehydrogenase 2
  IC50: 0.89 µM
[10]
  IC50: 1.45 µM
[6]
  IC50: 2.31 µM
[7]
  IC50: 2.11 µM
[8]
  inhibition: 71.6%

## Cc1cccc(Cn2c(CN3CCN(C(=O)C4CC4)CC3)nc3ccccc32)c1
[1]
  viability at 24 h, 0.1 µM: 93.4%
[5]
  IC50: 2.12 µM
[11]
  k el at 0.75 h, 2 ug/ml: 0.000333 s⁻¹
Retinal dehydrogenase 2
  IC50: 1.58 µM
[6]
  IC50: 0.79 µM
[7]
  IC50: 0.243 µM
[8]
  inhibition: 89.1%
[2]
  viability at 24 h, 1 µM: 91.3%
HepG2 [9]
  Activity: Non-Toxic
[12]
  microsomal CLint at 2 ug/ml: 80 µL/min/mg
[13]
  half-life at 2 ug/ml: 35 min
[3]
  viability at 24 h, 10 µM: 90%
HepG2 [4]
  Activity: 25%

## CC(C)=CCn1c(CN2CCN(C(=O)C3CC3)CC2)nc2ccccc21
[5]
  IC50: 1.27 µM
Retinal dehydrogenase 2
  IC50: 1.62 µM
[10]
  IC50: 2.15 µM
[6]
  IC50: 1.48 µM
[7]
  IC50: 1.5 µM
[8]
  inhibition: 74.3%

## O=C(C1CC1)N1CCN(Cc2nc3ccccc3n2Cc2ccccc2Cl)CC1
[1]
  viability at 24 h, 0.1 µM: 93.8%
[5]
  IC50: 2.41 µM
[11]
  k el at 0.75 h, 2 ug/ml: 0.000367 s⁻¹
Retinal dehydrogenase 2
  IC50: 1.97 µM
[10]
  IC50: 1.9 µM
[6]
  IC50: 3.16 µM
[7]
  IC50: 1.02 µM
[8]
  inhibition: 78.3%
[2]
  viability at 24 h, 1 µM: 91.9%
HepG2 [9]
  Activity: Non-Toxic
[12]
  microsomal CLint at 2 ug/ml: 88 µL/min/mg
[13]
  half-life at 2 ug/ml: 32 min
[3]
  viability at 24 h, 10 µM: 85.7%
HepG2 [4]
  Activity: 28%

## CCC(=O)N1CCN(Cc2nc3ccccc3n2Cc2cccc(C)c2)CC1
[1]
  viability at 24 h, 0.1 µM: 89.7%
[5]
  IC50: 1.68 µM
Retinal dehydrogenase 2
  IC50: 2.09 µM
[6]
  IC50: 3.23 µM
[7]
  IC50: 0.626 µM
[8]
  inhibition: 85.1%
[2]
  viability at 24 h, 1 µM: 91.8%
HepG2 [9]
  Activity: Non-Toxic
[3]
  viability at 24 h, 10 µM: 85.4%
HepG2 [4]
  Activity: 15%

## O=C(C1CC1)N1CCN(Cc2nc3ccccc3n2Cc2cccc(C(F)(F)F)c2)CC1
[1]
  viability at 24 h, 0.1 µM: 95.9%
[5]
  IC50: 0.59 µM
[11]
  k el at 0.75 h, 2 ug/ml: 0.000433 s⁻¹
Retinal dehydrogenase 2
  IC50: 1.37 µM
[6]
  IC50: 2.17 µM
[7]
  IC50: 0.921 µM
[8]
  inhibition: 82.1%
[2]
  viability at 24 h, 1 µM: 91.8%
HepG2 [9]
  Activity: Non-Toxic
[12]
  microsomal CLint at 2 ug/ml: 104 µL/min/mg
[13]
  half-life at 2 ug/ml: 27 min
[3]
  viability at 24 h, 10 µM: 90%
HepG2 [4]
  Activity: 30%

## Cc1cccc(Cn2c(CN3CCN(C(=O)c4ccncc4)CC3)nc3ccccc32)c1
[8]
  inhibition: 20.6%

## Cc1cccc(Cn2c(CN3CCN(C(=O)C4CCCC4)CC3)nc3ccccc32)c1
[8]
  inhibition: 67.5%

## Cc1cccc(Cn2c(CN3CCN(C(=O)c4ccc(Cl)cc4)CC3)nc3ccccc32)c1
[8]
  inhibition: 23.2%

## CC(C)CCn1c(OC2CCN(C(=O)c3ccco3)CC2)nc2ccccc21
[8]
  inhibition: 30.8%
